Assay results from US20190388510A1, “GLUCAGON-T3 CONJUGATES” (priority 2016, published 2019).
*1 amine or outer side, *2 acyl side, *3 side chain or, on linkers, in order; H or OH if unused. Where a SMILES comes first, the peptide text is derived from it. Where no end group is shown, it is not given here. Side-chain parts run from the residue outwards. [ ]: non-standard residue; d: D form. Thyronine(3,5,3'-I3) = N[C@@H](Cc1cc(I)c(Oc2ccc(O)c(I)c2)c(I)c1)C(=O)O; γGlu = O=C(O)[C@H](CCC(=O)[*:2])N[*:1]

Key:
[1] = format: in vitro ADME, human
Method: Each compound was incubated with phosphate buffered saline (PBS, pH=7.4) containing 60% mouse plasma at 37° C. for the duration of the study. At the time points of 6 h, 24 h and 72 h, aliquots of the incubated solutions were withdrawn and diluted with acetonitrile to precipitate the plasma proteins, which were subsequently removed by microcentrifugation at 13,000 rpm for 5 mins. The supernatant was collected and diluted for the analytical reversed-phase HPLC using a linear gradient of buffer B over buffer A (A: 10% aqueous acetonitrile, 0.1% TFA; B: 90% aqueous acetonitrile, 0.1% TFA) on a Zorbax C8 column (4.6×50 mm). RNA-Seq Total RNAs were extracted from frozen liver samples of 4 independent mice per group (vehicle, glucagon only, T3 only, co-administration of glucagon and T3 and glucagon/T3) using TriPure RNA reagent (Sigma). Poly-A isolation, library generation and amplification were performed according to the protocol of the mRNASeq Library Prep Kit (Lexogen). […] Mapping of color-coded reads on the mouse genome (mm10 assembly) was performed using the Lifescope software (Life Technologies). Reads for annotated (Ensembl) genes were counted using HtSeq. […] The synergy score (SS) was calculated as the relative fold change (FC) of (glucagon/T3) compared to the maximum FC of T3 and glucagon alone: SS=FC (glucagon/T3)/max (T3, glucagon). […]

DIO mice = assay: Cardiac function and histology in DIO mice (echocardiography); format: in vivo, mouse; conditions: mouse, in vivo
Method: After chronic treatment, HFHCD-fed or HFHSD-fed C57B16/j male mice (age) were sacrificed with CO2, body weight as well as heart weights and tibia length was taken during necropsy. Livers and whole hearts were embedded in paraffin using a vacuum infiltration processor TissueTEK VIP (Sakura). 3 μm thick slides were cut using a HMS35 rotatory microtome (Zeiss) and H & E staining was performed. For H & E staining, rehydration was done in a decreasing ethanol series, rinsing with tapwater, 2 min Mayers acid Hemalum, bluing in tapwater followed by lmin EosinY (both BioOptica). Dehydration was performed in increasing ethanol series, mounting with Pertex® (Medite GmbH) and coverslips (CarlRoth Chemicals). The slides were evaluated independently using a brightfield microscope (Axioplan, Zeiss). Photos were taken using the Hamamatsu-Nanozoomer HT2.0 in 1.25×, 5×. 20× and 40× magnification. The hepatic steatosis score is defined as the unweighted sum of the three individual scores for steatosis, lobular inflammation and ballooning degeneration. Steatosis is graded by the presence of fat vacuoles in liver cells according to the percentage of affected tissue (0: <5%; 1: 5-33%; 2: 33-66%; 3: >66%). Lobular inflammation is scored by overall assessment of inflammatory foci per 200× field (0: no foci; 1: <2 foci; 2: 2-4 foci; 3: >4 foci). The individual score for ballooning degeneration ranges from 0 (none), 1 (few cells) to 2 (many cells). Total scores range from 0 to 8 with scores <2 considered non-steatosis, 3 considered as borderline steatosis, 4-5 considered onset of steatosis, and >6 considered steatosis. Different to liver and heart, inguinal fat pad samples were embedded in paraffin using Leica embedding machine (EG1150 H) and cut in 5 μm sections using Leica Microtome (RM2255) to perform H&E staining. Samples were stained with hematoxyline for 4 minutes and eosinY for 2 minutes and fixed with Roti®-Histokitt (Carl Roth) before analysing them independently using Microscope Scope A.1 (Zeiss).
For transthoracic echocardiography, a Vevo2100 Imaging System (VisualSonics Inc., Toronto Canada) with a 30 MHz probe was used. All echocardiograms were performed on conscious animals to prevent anesthesia-related impairment of cardiac function as reported previously. Briefly, echocardiograms were obtained in parasternal long and short axis views. For accurate linear measurements of LV internal dimensions (LVID) and […] (LVPW) or septal (IVS) wall thicknesses, M-mode images of the heart in parasternal short-axis view at the level of the papillary muscle were acquired. Qualitative and quantitative measurements were made offline using analytical software (VisualSonics Inc.). Fractional shortening (FS) was calculated as FS %=[(LVIDd−LVIDs)/LVIDd]×100. Ejection fraction (EF) was calculated as EF %=100*((LVvolD−LVvolS)/LVvolD) with LVvol=((7.0/(2.4+LVID)*LVID^3). The corrected LV mass (LV MassCor) was calculated as LV MassCor=0.8(1.053*((LVIDd+LVPWd+IVSd)^3−LVIDd^3)). Heart rate and respiration rate were determined from M-mode tracings, using 3 consecutive intervals.
Gene expression profiling in the liver, iWAT, eWAT, BAT, and heart were performed following treatment of mice according to the treatment paradigms explained in the figure legends for each specific analsysis. For tissue collection, mice were fasted for 4 h and treated with compounds 2 h prior to tissue collection. Gene expression was profiled with quantitative real-time RT-PCR using either TaqMan single probes or with specifically-designed TaqMan low-density array cards. The relative expression of the selected genes was normalized to the reference gene hypoxanthine-guanine phosphoribosyltransferase (Hprt).

[2] = tested on: HFHSD-fed male C57Bl6j mice; assay: Metabolic efficacy of different glucagon/T3 conjugate versions in HFHSD-fed mice; format: in vivo, mouse; conditions: 100 nmol kg-1 daily, 14 days
Excerpt: For studies on lipid handling in wildtype mice (Western mice), male C57Bl/6j mice (Jackson Laboratories) were fed a atherogenic Western diet (Research Diets D12079B), which is a high-cholesterol diet (0.21% gm %) with 41% kcal from fat, 43% kcal from carbohydrates, and 17% kcal from protein. For studies on energy metabolism in obese mice (DIO mice), male C57Bl/6j mice (Jackson Laboratories) were fed a diabetogenic diet (Research Diets D12331), which is a high-sucrose diet with 58% kcal from fat 25.5% kcal from carbohydrates, and 16.4% kcal from protein. Both dietary challenges began at 8 weeks of age. HFHSD and HFHCD mice were single- or group-housed on a 12:12-h light-dark cycle at 22° C. with free access to food and water. Mice were maintained under these conditions for a minimum of 16 weeks before initiation of pharmacological studies and were between the ages of 6 months to 12 months old. All injections and tests were performed during the light cycle. Compounds were administered in a vehicle of 1% Tween-80 and 1% DMSO and were given by daily subcutaneous injections at the indicated doses at a volume of 5 μl per g body weight. Mice were randomized and evenly distributed to test groups according to body weight and body composition. If ex vivo molecular biology/histology/biochemistry analyses were performed, the entire group of mice for each treatment was analyzed and scored in a blinded fashion.
Compounds were administered by repeated subcutaneous injections in the middle of the light phase at the indicated doses with the indicated durations. Co-administration of compounds was administered by single formulated injections. Body weights and food intake were measured every day or every other day after the first injection. All studies with wild-type mice were performed with a group size of n=8 or greater using mice on a C57B16j background.
Blood was collected at the indicated times from tail veins or after euthanasia using EDTA-coated microvette tubes (Sarstedt), immediately chilled on ice, centrifuged at 5,000 g and 4° C., and plasma was stored at −80° C. For […] (FPLC) of cholesterol distribution in different lipoprotein fractions, fresh plasma from each treatment group was pooled (n=6-8) and ran over two Superose 6 HR columns in tandem. Cholesterol levels in the collected fractions were determined by colorimetric assay. Plasma insulin and T3 were quantified by an ELISA assay (Ultrasenstive Mouse Insulin ELISA and Rodent T3 ELISA; Alpco). Plasma FGF21 was quantified by an ELISA assay (Mouse FGF21 ELISA; Millipore). Plasma cholesterol, extracted hepatic cholesterol, triglycerides, ALT, and AST were measured using enzymatic assay kits (Thermo Fisher). Plasma creatinine and blood urea nitrogen were measured using enzymatic assay kits (Abcam). Plasma free fatty acids were measured using enzymatic assay kits (Wako). All assays were performed according to the manufacturers' instructions.

Compound | degradation in plasma [1] | heart histology: thyrotoxic cardiomyopathy (DIO mice) | whole heart expression of T3-sensitive genes (Dio2, Ucp2) (DIO mice) | whole heart expression of hypertrophic gene markers (Nppa, Nppb) (DIO mice) | body weight lowering [2] | cholesterol lowering effect [2] | lipid lowering [2]
CSCC[C@H](NC(=O)[C@H](CC(C)C)NC(=O)[C@H](Cc1c[nH]c2ccccc12)NC(=O)[C@H](CCC(N)=O)NC(=O)[C@@H](NC(=O)[C@H](Cc1ccccc1)NC(=O)[C@H](CC(=O)O)NC(=O)[C@H](CCC(N)=O)NC(=O)[C@H](C)NC(=O)[C@H](CCCNC(=N)N)NC(=O)[C@H](CCCNC(=N)N)NC(=O)[C@H](CO)NC(=O)[C@H](CC(=O)O)NC(=O)[C@H](CC(C)C)NC(=O)[C@H](Cc1ccc(O)cc1)NC(=O)[C@H](CCCCN)NC(=O)[C@H](CO)NC(=O)[C@H](Cc1ccc(O)cc1)NC(=O)[C@H](CC(=O)O)NC(=O)[C@H](CO)NC(=O)[C@@H](NC(=O)[C@H](Cc1ccccc1)NC(=O)[C@@H](NC(=O)CNC(=O)[C@H](CCC(N)=O)NC(=O)[C@@H](CO)NC(=O)[C@@H](N)Cc1c[nH]cn1)[C@@H](C)O)[C@@H](C)O)C(C)C)C(=O)N[C@@H](CC(N)=O)C(=O)NCC(=O)NCC(=O)N1CCC[C@H]1C(=O)N[C@@H](CO)C(=O)N[C@@H](CO)C(=O)NCC(=O)N[C@@H](C)C(=O)N1CCC[C@H]1C(=O)N1CCC[C@H]1C(=O)N1CCC[C@H]1C(=O)N[C@@H](CO)C(=O)N[C@@H](CCCCNC(=O)CC[C@H](NC(=O)[C@@H](N)Cc1cc(I)c(Oc2ccc(O)c(I)c2)c(I)c1)C(=O)O)C(N)=O [glucagon/T3] (H-H[dS]QGTFTSDYSKYLDSRRAQDFVQWLMNGGPSSGAPPPSK([γGlu-Thyronine(3,5,3'-I3)])-NH2; N-terminus assumed) | remains intact with nearly no detectable degradation | none of these manifestations of thyrotoxicity or thyroid hormone induced cardiomyopathy were detectable | did not appear to be regulated | did not appear to be regulated |  |  | 
glucagon/iT3: inverted attachment: amine of T3 covalently linked to the glucagon analog through a succinate spacer at Lys40 (H[dS]QGTFTSDYSKYLDSRRAQDFVQWLMNGGPSSGAPPPSK; not fully specified (residue 40)) |  |  |  |  | failed to lower body weight | not evident | did not lower lipids
glucagon/rT3: reverse T3 (rT3) coupled to the glucagon analog with the same linker chemistry as glucagon/T3 (H[dS]QGTFTSDYSKYLDSRRAQDFVQWLMNGGPSSGAPPPSK; not fully specified (residue 40); also: reverse T3 (rT3) coupled with same linker chemistry as glucagon/T3) |  |  |  |  | failed to lower body weight | not evident | did not lower lipids
